Literature values as cited in US4897502A, “Process for making solid polyhalotriaryl phosphate esters” (priority 1987, dated 1990).
Where two headings read alike, the source gives them in different places.

What was measured:
[1] = 0° C.

Row | Molecule | Hansen Dispersion Component (Table I) | Hildebrand Solubility Parameter (Table I) | further results
1 | CCCC(C)O (centres unmarked) [Example 2-pentanol, 2-pentanol] | 15.0 SI | 22.2 SI | 
2 | CC(C)O [Example 2-propanol, 2-propanol] |  |  | Hansen Dispersion Component (comparison liquids): 7.6
3 | [Cl-].[Cl-].[Mg+2] [magnesium chloride] |  |  | magnesium chloride dissolving in 100 g ethanol ([1]; 100 g ethanol): 3.61 g; magnesium chloride dissolving in 100 g methanol ([1]; 100 g methanol): 15.5 g
4 | CCCCCCO [Example 1-hexanol, 1-hexanol] | 15.0 SI |  | 
5 | CO [methanol] |  |  | Hansen Dispersion Component (comparison liquids): 7.4
6 | CCC(C)O (centres unmarked) [Example 2-butanol, 2-butanol] | 14.5 SI | 22.7 SI | 
7 | CCCCCCCCCCO [Example 1-decanol, 1-decanol] | 15.4 SI | 20.5 SI | 
8 | CCCCC(O)CC (centres unmarked) [Example 3-heptanol, 3-heptanol] | 14.6 SI | 20.2 SI | 
9 | CCCCCC(C)O (centres unmarked) [Example 2-heptanol, 2-heptanol] | 14.6 SI |  | 
10 | CCCCCO [Example 1-pentanol, 1-pentanol] | 14.4 SI |  | 
11 | CCCCCCCCO [Example 1-octanol, 1-octanol] | 15.2 SI | 21.1 SI | 
12 | amyl alcohol [amyl alcohol (pract.)] | 14.5 SI |  | 
13 | CCCCC(CC)CO (centres unmarked) [2-ethylhexanol] |  | 20.8 SI | 
14 | CCCCCCCO [Example 1-heptanol, 1-heptanol] | 15.1 SI |  | 
